Test results published in patent US8372379B2, “Technetium-99m (I) tricarbonyl complexes with tridentate chelators for myocardium imaging” (Mallinckrodt LLC, priority 2006, dated 2013).

Assay: Biodistribution of 99mTc complexes in female CD-1 mice after intravenous injection
Assay type: in vivo
Settings: i.v.
Experimental: These studies have been designed as a preliminary screening tool to evaluate the biological profile of the cationic tricarbonyl complexes. The biodistribution of the complexes was evaluated in groups of 5 female CD-1 mice (randomly bred, Charles River) weighing approximately 20-25 g each and have been performed according to EEC Legislation (National Law 129/92) on ethical and animal care. Animals were intravenously injected with 100 μL (1.5-8.0 MBq) of each preparation via the tail vein and were maintained on normal diet ad libitum. […] The injected radioactive dose and the radioactivity remaining in the animal after sacrifice were measured in a dose calibrator (Aloka, Curiemeter IGC-3, Tokyo, Japan). The difference between the radioactivity in the injected and sacrificed animal was assumed to be due to total excretion from whole body animal. Blood samples were taken by cardiac puncture at sacrifice. Tissue samples of the main organs were then removed, weighted and counted in a gamma counter (Berthold). Biodistribution results were expressed as percentage of the injected dose per organ (% ID/organ) and/or per gram tissue (% ID/g). For blood, total activity was calculated assuming that this organ constitutes 6% of the total weight, respectively. The remaining activity in the carcass was also measured in a dose calibrator.

[C-]#[N+]CC(C)(C)OC.[C-]#[N+]CC(C)(C)OC.[C-]#[N+]CC(C)(C)OC.[C-]#[N+]CC(C)(C)OC.[C-]#[N+]CC(C)(C)OC.[C-]#[N+]CC(C)(C)OC.[Tc] [^99mTc-Sestamibi]
Blood uptake (5 min p.i.): 2.0 ± 0.4 % ID/g of wet organ | Heart uptake (5 min p.i.): 9.4 ± 0.4 % ID/g of wet organ | Heart/Blood ratio (5 min p.i.): 4.1 ± 0.7 | Heart/Liver ratio (5 min p.i.): 0.9 ± 0.2 | Heart/Lung ratio (5 min p.i.): 3.5 ± 0.8 | Kidney uptake (5 min p.i.): 34.2 ± 2.4 % ID/g of wet organ | Liver uptake (5 min p.i.): 9.0 ± 1.8 % ID/g of wet organ | Lung uptake (5 min p.i.): 2.4 ± 0.6 % ID/g of wet organ | Blood uptake (1 h (60 min) p.i.): 1.2 ± 0.4 % ID/g of wet organ | Heart uptake (1 h (60 min) p.i.): 8.0 ± 0.6 % ID/g of wet organ | Heart/Blood ratio (1 h (60 min) p.i.): 7.9 ± 3.6 | Heart/Liver ratio (1 h (60 min) p.i.): 1.4 ± 0.1 | Heart/Lung ratio (1 h (60 min) p.i.): 6.3 ± 0.6 | Kidney uptake (1 h (60 min) p.i.): 14.8 ± 6.1 % ID/g of wet organ | Liver uptake (1 h (60 min) p.i.): 5.6 ± 0.3 % ID/g of wet organ | Lung uptake (1 h (60 min) p.i.): 1.3 ± 0.2 % ID/g of wet organ | Blood uptake (2 h (120 min) p.i.): 1.1 ± 0.3 % ID/g of wet organ | Heart uptake (2 h (120 min) p.i.): 7.9 ± 1.0 % ID/g of wet organ | Heart/Blood ratio (2 h (120 min) p.i.): 7.4 ± 2.3 | Heart/Liver ratio (2 h (120 min) p.i.): 1.8 ± 0.7 | Heart/Lung ratio (2 h (120 min) p.i.): 9.2 ± 1.1 | Kidney uptake (2 h (120 min) p.i.): 9.7 ± 1.8 % ID/g of wet organ | Liver uptake (2 h (120 min) p.i.): 5.0 ± 2.1 % ID/g of wet organ | Lung uptake (2 h (120 min) p.i.): 0.9 ± 0.2 % ID/g of wet organ
